Results taken from PubChem BioAssay (NCI).
“And” between values parts separate entries of the source, which are not always exact repeats. Equal values may be shown once.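 Cells were grown in 96-well plates and exposed to each compound for 48 hours at five concentrations; endpoints were interpolated linearly between bracketing concentrations, or set to the highest concentration if not reached. GI50 marks 50% less growth. At the TGI there is no net growth.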

What was measured:
Test in all cases: NCI tumour cell line growth inhibition, 48 h
[1] = system: KM20L2 colon
[2] = system: M19-MEL melanoma
[3] = system: LXFL 529 NSCLC
[4] = system: DMS 114 small cell lung
[5] = system: SNB-78 CNS
[6] = system: DLD-1 colon
[7] = system: P388 leukemia
[8] = system: XF 498 CNS
[9] = system: P388/ADR leukemia
[10] = system: DMS 273 small cell lung
[11] = system: RXF-631 renal

| SMILES | TGI [1] | TGI [2] | TGI [3] [µM] | TGI [4] | TGI [5] | TGI [6] | TGI [7] | TGI [8] [µM] | TGI [9] | TGI [10] | GI50 [5] [µM] | GI50 [6] [µM] | GI50 [7] [µM] | GI50 [1] [µM] | GI50 [2] [µM] | GI50 [9] [µM] | GI50 [10] [µM] | GI50 [4] [µM] | TGI [11] [µM] |
| --- | --- | --- | --- | --- | --- | --- | --- | --- | --- | --- | --- | --- | --- | --- | --- | --- | --- | --- | --- |
| COC(=O)C1=C(C)N2CCSC2(C)C(C(=O)OC)C1c1cccc(Cl)c1 (stereo not given) | 43.4 µM | 31.9 µM | 72.5 | 44.6 µM | – | – | – | – | – | – | – | – | – | – | – | – | – | – | – |
| CC[C@@]1(O)C(=O)OCc2c1cc1n(c2=O)Cc2cc3ccccc3nc2-1 | 3.65 µM | 1.35 µM | 3.54 | 3.27 µM | > 20.5 µM | 25.7 µM | 0.42 µM | 0.259 | 0.677 µM | 0.385 µM | – | – | – | – | – | – | – | – | – |
| Nc1ccc(O)c2c1C(=O)c1c(N)ccc(O)c1C2=O | – | > 100 µM | > 100 | > 100 µM | > 100 µM | > 100 µM | – | > 100 | – | > 100 µM | – | – | – | – | – | – | – | – | – |
| CCN(CC)CC[n+]1ccc2c(C)c3[nH]c4ccc(O)cc4c3c(C)c2c1 | 35.8 µM and 46.4 µM | 5.48 µM and 6.71 µM | 20 | 8.87 µM and 15.4 µM | 44.1 µM and 59.5 µM | > 96.4 µM and 102 µM | 2.48 µM and 4.85 µM | – | 64.7 µM and 91.7 µM | 19.6 µM and 20.7 µM | 5.71 | 7.81 | 0.0256 | 6.95 | 0.954 | 5.08 | 1.93 | 0.652 | – |
| O=C(NC(Cc1ccc(Br)cc1)C(=O)O)c1ccc(I)cc1 (stereo not given) | > 100 µM | > 100 µM | – | > 100 µM | > 100 µM | > 100 µM | > 100 µM | > 100 | > 100 µM | > 100 µM | – | – | – | – | – | – | – | – | – |
| CC1C(=O)CC(c2cccs2)N(N=O)C1c1cccs1 (stereo not given) | > 100 µM | > 100 µM | – | – | > 85.2 µM | > 100 µM | 43.1 µM | 45.3 | 40.8 µM | > 100 µM | – | – | – | – | – | – | – | – | – |
| S=c1c2[nH]cnc2ncn1CCSC1=NC=NC2=NC=NC21 (stereo not given) | > 100 µM | > 100 µM | – | > 100 µM | > 100 µM | > 100 µM | – | > 100 | – | > 100 µM | – | – | – | – | – | – | – | – | – |
| Cc1[nH]c(=O)[nH]c(=O)c1/C=C/C(=O)NC(CO)CS(=O)CS(C)=O (stereo not given) | 328 µM | 74.3 µM | – | 42 µM | 97.5 µM | 253 µM | 74.8 µM | 8.12 | 225 µM | 117 µM | – | – | – | – | – | – | – | – | – |
| COc1ccc(-c2nc3c(nc2-c2ccc(OC)cc2)C(N)=NS(=O)(=O)N3)cc1 | – | > 100 µM | – | > 100 µM | – | > 100 µM | – | – | – | > 100 µM | – | – | – | – | – | – | – | – | > 100 |
| CSc1nc(CO)c(CO)n1C | > 100 µM | > 100 µM | – | > 100 µM | > 100 µM | > 100 µM | > 100 µM | > 100 | > 100 µM | > 100 µM | – | – | – | – | – | – | – | – | – |
